Test results reported in US20180187263A1, “KITS FOR DIAGNOSTIC DETECTION AND PREVENTION OF FEEDLOT BOVINE RESPIRATORY DISEASE” (Iowa State University Research Foundation, Inc., priority 2017, published 2018).

What was measured:
[1] = system: BRD in high-risk calves; assay: BRD prevention in high-risk calves, weekly injections (Example 13); assay type: in vivo; settings: weekly injections over five weeks; rupatadine 7 mg/kg subcutaneous, tripelennamine 1 mg/kg, WEB2086 10 mg/kg; five calves per group
Description: Twenty-five high-risk BRD calves were transported to a new barn and five each were assigned to different treatment groups: no treatment, weekly subcutaneous injections of 7 mg/kg of rupatadine, weekly injections of 1 mg/kg tripelennamine, weekly injections of 10 mg/kg WEB2086, and weekly injections of 1 mg/kg tripelennamine and 10 mg/kg WEB2086. The animals were observed over the next five weeks twice daily for BRD. Any animal who required antibiotics for treating the clinical signs of BRD was classified as having BRD. […] Four of the five (80%, n=4 of 5) animals receiving tripelennamine only developed BRD.

[2] = target: T1, Bovine H1 histamine receptor (Bos taurus, UniProt P30546); assay: histamine-mediated intracellular calcium accumulation in BHK cells transiently expressing bovine H1 histamine receptor; assay type: cell-based; settings: 10 nM histamine
T1 construct: expressed in transfected cells; host or cells: BHK cells, transient, lipofectamine, pcDNA3.3
Description: Bovine H1 histamine receptor was cloned into pcDNA3.3 expression vector and transiently expressed in BHK tissue culture cells using lipofectamine as per Carlson et al. Ten nM histamine was then added to the cells in the presence of various concentrations of rupatadine, tripelennamine, lexipafant, or WEB2086. Intracellular calcium accumulation was monitored in the transfected cells using a commercially available kit (Abcam, Cambridge, Mass.). IC50 values were then determined by identifying the concentration of the antagonist that reduced the maximal PAF-mediated intracellular calcium accumulation by 50%. […] Therefore, as showing in Examples 11 and 12, rupatadine is the only antihistamine that can also block the function of PAFR.

[3] = target: T2, Bovine PAFR (Bos taurus, UniProt Q9TTY5); assay: PAF-mediated intracellular calcium accumulation in BHK cells transiently expressing bovine PAFR; assay type: cell-based; settings: 10 nM PAF; for block of bovine PAFR (PAF-mediated intracellular calcium accumulation), FIG. 11: antagonist 1-100 nM, PAFR antagonists panel; for block of bovine PAFR (PAF-mediated intracellular calcium accumulation), FIG. 12: antihistamines 1-100 nM
T2 construct: expressed in transfected cells; host or cells: BHK cells, transient, lipofectamine, pcDNA3.3
Description: Bovine PAFR was cloned into pcDNA3.3 expression vector and transiently expressed in BHK tissue culture cells using lipofectamine as per Carlson et al., J Biol Chem, 271:23146053 (1996), herein incorporated by reference in its entirety. Ten nM PAF was then added to the cells in the presence of various concentrations of various antagonists: rupatadine, lexipafant (as in Kingsnorth, et al., BJS, 82:1414-20 (1995), herein incorporated in its entirety), and WEB2086 a PAF antagonist which has not been commercialized and/or used in humans to date (as in Casals-Stenzel et al., J of Pharmacolo Experimental Therapeutics, 241:974-81 (1987), herein incorporated in its entirety), as well as tripelennamine, a bovine-approved antihistamine at concentrations ranging between 1-100 nM. Intracellular calcium accumulation was monitored in the transfected cells using a commercially available kit (Abcam, Cambridge). IC50 values were then determined by identifying the concentration of the antagonist that reduced the maximal PAF-mediated intracellular calcium accumulation by 50%.
Various antihistamines were also tested. […] Intracellular calcium accumulation was monitored in the transfected cells using a commercially available kit (Abcam, Cambridge). IC50 values were then determined by identifying the concentration of the antagonist that reduced the maximal PAF-mediated intracellular calcium accumulation by 50%.

[4] = pharmacotherapeutic study, blood levels after oral administration; assay type: in vivo; settings: daily oral doses of 30 mg/animal for 5 days; six calves; FIG. 9
Description: A pharmacotherapeutic study was completed to confirm the PAFRi survives the rumen and reaches therapeutic blood and lung concentrations following oral administration to feedlot calves. Six calves were purchased and given daily oral doses of 30 mg/animal of the drug rupatadine for 5 days. Blood was drawn five times on day one and twice per day thereafter to measure the blood levels of rupatadine.
In addition to the blood levels of the drug, the amount of the drug in the muscle tissue is also analyzed. Six recently weaned feedlot calves were orally dosed with […] of rupatadine once a day for five days, a dose that was determined based on allometric scaling from human data. Blood samples were taken at 0, 2, 4, 8, 12, 24, 48, 72, 96, and 120 hours after the first dose. Calves were euthanized at the 120-hour time point at which lungs samples were removed. Samples were submitted to the PhAST laboratory at Iowa State University, for LCMS-based quantitation of the drug and its primary metabolite that is pharmacologically active.

[5] = system: BRD in high-risk calves; assay: BRD prevention in high-risk calves, comparison of rupatadine treatment methods (Example 14); assay type: in vivo; settings: for calves that developed BRD: five-week observation, n=6
Description: In order to test various treatment methods of rupatadine, 25 high-risk calves were transported to a new farm. Seven calves were used as controls, six were given rupatadine as a single oral dose of 1 mg/kg, six were given rupatadine as a single subcutaneous injection of 7 mg/kg, six calves were given weekly subcutaneous injections of 7 mg/kg rupatadine. The animals were observed over the next five weeks twice daily for BRD. Any animal who required antibiotics for treating the clinical signs of BRD was classified as having BRD.

[6] = system: BRD in feedlot calves; assay: BRD prevention at the feedlot, drug in the feed (Examples 5-7); assay type: in vivo
Description: An initial study was performed to confirm BRD prevention at the feedlot using an anti-inflammatory composition comprising rupatadine, the oral inhibitor of PAFR. A total of 18 calves were evaluated with the treatment arm receiving a dosage rate of 0.3 mg/kg. Calves were provided the drug in the feed during the first three weeks after entering the feedlot which is within the high risk 6-week period following transfer of the animal. Calves were purchased from a location in Joplin, Mo. having an overall incidence of BRD at >40% which is higher than the standard incidence of about 10% in cattle.
A further study was performed to confirm BRD prevention at the feedlot using the anti-inflammatory composition comprising rupatadine. The same methodology of Example 5 was employed with the modification of the number of calves and the dosage rate. The dosage rate was increased to 0.6 mg/kg. The number of calves were increased to 24 in total. The results are consistent to the first trial, including: 41.7% of treated calves (n=5 of 12) developed BRD whereas 100% of untreated calves (n=12 of 12) developed BRD.
A further study was performed to confirm BRD prevention at the feedlot using the anti-inflammatory composition comprising rupatadine as outlined in Example 5 with the modification of the number of calves (20 total) and the dosage rate. The dosage rate increased to 1.2 mg/kg.

[7] = target: T3, PAFR (Bos taurus, UniProt Q9TTY5); assay: stress hormone- and commensal oral bacteria-mediated second messenger accumulation in calf blood cells; assay type: cell-based, cattle; settings: 500 nM inhibitor; cortisol 5 ng/mL, norepinephrine 100 pg/mL, 10^6 CFUs/mL commensal oral bacteria; six hours at 37° C.
T3 construct: second messenger accumulation in calf blood cells that have an increase in expression of PAFR; endogenous in cells; host or cells: bovine whole blood cells (ex vivo)
From the text: A PAFR inhibitor blocks the stress hormone- and commensal oral bacteria-mediated second messenger accumulation in calf blood cells that have an increase in expression of PAFR. Studies presented in Example 1 and FIG. 1 were repeated with the inclusion of the compositions comprising the anti-inflammatory drug rupatadine according to the invention. Blood was drawn from 10 animals that have an increase in PAFR expression (those in which an RT-PCR amplicon was visible after 10-15 cycles) and 10 animals with “normal” or no PAFR expression (those in which an RT-PCR amplicon was visible after 30-45 cycles).
Approximately 5 mL of whole blood was collected from the jugular or caudal vein of non-transported juvenile and adult cattle. Blood was placed in EDTA tubes, aliquoted, and cortisol (5 ng/mL) and norepinephrine (100 pg/mL) were added to some of the blood. The next day, blood samples were incubated with 0 or 10^6 CFUs/mL of commensal oral bacteria, 0 or 500 nM of the inhibitor, and a second messenger reagent for six hours at 37° C. with gentle rolling. After the six-hour incubation period, blood samples were analyzed for the production of second messengers. Data was standardized based on second messenger production in the presence of vehicle. […] Fifty ng of total RNA was then subjected to semi-quantitative RT-PCR to confirm the PAFR expression status of each animal.

[8] = system: PAFR; assay: weekly blood PAFR level by qRT-PCR (Example 14); assay type: in vivo, calves
Description: Blood was extracted from all 25 calves was extracted weekly and the level of PAFR was assayed using qRT-PCR and the theoretical copies of transcript/200 ng of total RNA. […] However, it dropped the most in the weekly depot injection calves during the last three weeks of observations.

[9] = system: lung pathology; assay: lung necropsy after five weeks of treatment (Example 13); assay type: in vivo; settings: after five weeks of weekly 7 mg/kg subcutaneous injections; BRD(+) calves usually >25%
From the text: After the five weeks, the rupatadine treated animals were euthanized and the lungs removed and necropsied. Three veterinarians then assessed the lungs for signs of disease, such as abscessation or consolidation. […] Lung pathology in BRD(+) calves is usually >25%, and of the rupatadine treated animals, there was only about 5-10% disease identified by the veterinarians.

T1 sequence (P30546 whole entry): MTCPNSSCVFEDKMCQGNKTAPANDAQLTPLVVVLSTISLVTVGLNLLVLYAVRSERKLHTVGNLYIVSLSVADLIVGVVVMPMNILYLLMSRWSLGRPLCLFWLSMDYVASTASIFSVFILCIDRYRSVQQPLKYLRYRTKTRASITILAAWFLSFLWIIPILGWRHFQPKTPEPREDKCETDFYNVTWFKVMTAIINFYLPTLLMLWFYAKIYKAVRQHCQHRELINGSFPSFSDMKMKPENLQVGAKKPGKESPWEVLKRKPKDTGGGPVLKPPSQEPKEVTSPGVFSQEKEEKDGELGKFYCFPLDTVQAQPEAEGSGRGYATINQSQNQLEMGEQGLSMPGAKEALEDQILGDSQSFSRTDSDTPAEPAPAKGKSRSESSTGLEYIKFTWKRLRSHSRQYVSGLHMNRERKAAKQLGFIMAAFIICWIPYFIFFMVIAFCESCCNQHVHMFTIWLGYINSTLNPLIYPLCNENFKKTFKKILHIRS
T2 sequence (Q9TTY5 whole entry): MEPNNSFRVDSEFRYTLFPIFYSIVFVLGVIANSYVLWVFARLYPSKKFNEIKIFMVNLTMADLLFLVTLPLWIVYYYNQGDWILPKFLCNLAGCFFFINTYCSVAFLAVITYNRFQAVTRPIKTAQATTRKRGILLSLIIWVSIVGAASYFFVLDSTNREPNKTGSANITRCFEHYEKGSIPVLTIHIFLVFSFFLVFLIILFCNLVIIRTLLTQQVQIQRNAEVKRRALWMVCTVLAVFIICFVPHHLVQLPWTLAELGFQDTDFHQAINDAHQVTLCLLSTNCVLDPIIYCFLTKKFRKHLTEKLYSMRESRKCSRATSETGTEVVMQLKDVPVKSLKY
T3 sequence (Q9TTY5 whole entry): as above

Structure (SMILES): Cc1nnc2n1-c1sc(CCC(=O)N3CCOCC3)cc1C(c1ccccc1Cl)=NC2 [WEB2086]
- animals that developed BRD [1]: 100%
- block of H1 histamine receptor function, FIG. 13 [2]: fail to black
- block of bovine PAFR (PAF-mediated intracellular calcium accumulation), FIG. 11 [3]: blocked

Structure (SMILES): CN(C)CCOC(c1ccccc1)c1ccccc1 [diphenhydramine]
- block of bovine PAFR (PAF-mediated intracellular calcium accumulation), FIG. 12 [3]: do not block

Structure (SMILES): OCCOCCN1CCN(C(c2ccccc2)c2ccc(Cl)cc2)CC1 (stereo not shown) [hydroxyazine, hydroxyzine]
- block of bovine PAFR (PAF-mediated intracellular calcium accumulation), FIG. 12 [3]: do not block

Structure (SMILES): CCOC(=O)[C@H](CC(C)C)N(C)S(=O)(=O)c1ccc(Cn2c(C)nc3cnccc32)cc1 [lexipafant]
- block of H1 histamine receptor function, FIG. 13 [2]: fail to black
- block of bovine PAFR (PAF-mediated intracellular calcium accumulation), FIG. 11 [3]: blocked

Structure (SMILES): CC(CN1c2ccccc2Sc2ccccc21)N(C)C (stereo not shown) [promethazine]
- block of bovine PAFR (PAF-mediated intracellular calcium accumulation), FIG. 12 [3]: do not block

Structure (SMILES): COc1ccc(CN(CCN(C)C)c2ccccn2)cc1 [pyrilamine]
- block of bovine PAFR (PAF-mediated intracellular calcium accumulation), FIG. 12 [3]: do not block

Structure (SMILES): Cc1cncc(CN2CCC(=C3c4ccc(Cl)cc4CCc4cccnc43)CC2)c1 [rupatadine, 8-chloro-11-[1-[(5-methyl-3-pyridyl)methyl]-4-piperidyliden]-6,11-dihydro-5H-benzo[5,6]cyclohepta[1,2-b]pyridine]
- blood levels: time to reach therapeutic concentrations [4]: reaches therapeutic concentrations more rapidly than in humans
- calves that developed BRD ([5]; single oral dose of 1 mg/kg): 100%
- calves that developed BRD ([5]; single subcutaneous long-acting injection of 7 mg/kg): 83.3%
- calves that developed BRD ([5]; weekly subcutaneous injections of 7 mg/kg): 16.7%
- day on which BRD developed ([5]; weekly subcutaneous injections of 7 mg/kg, the one calf that developed BRD): 31 days
- treated calves that developed BRD ([6]; 0.3 mg/kg in the feed during first three weeks after entering feedlot, 8 treated calves, within 5 weeks): 50%
- reduction in BRD ([6]; 0.3 mg/kg in the feed, versus calves that received no drug): 50%
- animals that developed BRD [1]: 0%
- block of H1 histamine receptor function, FIG. 13 [2]: block
- block of bovine PAFR (PAF-mediated intracellular calcium accumulation), FIG. 11 [3]: blocked
- block of bovine PAFR (PAF-mediated intracellular calcium accumulation), FIG. 12 [3]: blocks
- second messenger accumulation in samples with increased PAFR expression [7]: indistinct from normal or non-expressing samples
- decrease in PAFR expression over five weeks ([8]; weekly depot injection 7 mg/kg versus control and other rupatadine treatments, FIG. 21): greatest decrease
- PAFR expression at 35 days ([8]; weekly injections 7 mg/kg, 35 days): below ‘normal’ expression
- lung disease identified by the veterinarians [9]: 5-10%

Structure (SMILES): CN(C)CCN(Cc1ccccc1)c1ccccn1 [tripelennamine]
- animals that developed BRD [1]: 80%
- block of H1 histamine receptor function, FIG. 13 [2]: block
- block of bovine PAFR (PAF-mediated intracellular calcium accumulation), FIG. 11 [3]: not blocked
- block of bovine PAFR (PAF-mediated intracellular calcium accumulation), FIG. 12 [3]: do not block
